Patent US9326986B2, “Quinazolinone, quinolone and related analogs as sirtuin modulators” (GLAXOSMITHKLINE LLC, priority 2008, dated 2016)

Target: T1, SIRT1 (Homo sapiens, UniProt Q96EB6)
T1 sequence (Q96EB6 1-747): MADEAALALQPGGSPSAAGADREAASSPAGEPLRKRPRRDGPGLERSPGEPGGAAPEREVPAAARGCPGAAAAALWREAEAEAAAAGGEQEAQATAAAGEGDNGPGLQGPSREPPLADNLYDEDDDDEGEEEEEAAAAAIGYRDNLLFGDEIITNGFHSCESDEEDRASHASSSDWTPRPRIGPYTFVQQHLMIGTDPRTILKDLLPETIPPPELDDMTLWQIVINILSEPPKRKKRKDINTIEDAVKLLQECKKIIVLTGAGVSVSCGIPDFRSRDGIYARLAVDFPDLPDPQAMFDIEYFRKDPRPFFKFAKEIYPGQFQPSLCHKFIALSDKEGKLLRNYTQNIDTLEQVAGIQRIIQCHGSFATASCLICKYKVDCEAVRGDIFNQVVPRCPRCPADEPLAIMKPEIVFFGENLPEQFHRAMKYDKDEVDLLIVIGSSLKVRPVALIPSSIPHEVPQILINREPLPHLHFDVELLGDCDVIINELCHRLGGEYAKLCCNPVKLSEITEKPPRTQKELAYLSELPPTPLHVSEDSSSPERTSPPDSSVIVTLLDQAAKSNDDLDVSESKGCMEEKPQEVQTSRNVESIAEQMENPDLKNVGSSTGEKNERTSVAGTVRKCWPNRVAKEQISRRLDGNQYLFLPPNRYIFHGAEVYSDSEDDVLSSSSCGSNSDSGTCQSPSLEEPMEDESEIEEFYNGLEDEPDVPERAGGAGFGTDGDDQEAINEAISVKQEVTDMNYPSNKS
Assay: Mass spectrometry based assay to identify modulators of SIRT1 activity (deacetylation of p53-based acetylated peptide)
Format: biochemical
Details: 10 nM SIRT1, 0.5 μM peptide substrate, 120 μM βNAD+, 25 minutes at 25° C.; for EC1.5 μM: SIRT1 activation

| % Fold Act. (percent maximum fold activation) | EC1.5 μM | Compound |
| --- | --- | --- |
| A (Fold activation>200%) | A (EC1.5<1.0 μM) | O=C(Nc1cccc2c(=O)cc(-c3cccc(Cl)c3)[nH]c12)c1cnccn1 [Compound 447] |
| A (Fold activation>200%) | A (EC1.5<1.0 μM) | O=C(Nc1cccc2c(=O)cc(-c3cccc(C(F)(F)F)c3)[nH]c12)c1cccc(CN2CCOCC2)n1 [Compound 448] |
| A (Fold activation>200%) | A (EC1.5<1.0 μM) | O=C(Nc1nccs1)c1cncc2c(=O)cc(-c3cccc(C(F)(F)F)c3)[nH]c12 [Compound 449, 4-oxo-N-(thiazol-2-yl)-2-(3-(trifluoromethyl)phenyl)-1,4-dihydro-1,6-naphthyridine-8-carboxamide] |
